Experimental data from ChEMBL document CHEMBL1201862, “PubChem BioAssay data set” (2004).
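A five-concentration, 48-hour dose response in 96-well plates underlies each endpoint, interpolated linearly between surrounding concentrations. GI50 marks 50% less growth.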 The source made the active and inactive calls. Rule as the data show it: active = GI50 up to about 1.1 µM and inactive = higher.

Tests used:
Test in all cases: inhibition of tumour cell growth, NCI panel, 48 h
[1] = system: SR
[2] = system: HOP-92
[3] = system: 786-0
[4] = system: HCT-116
[5] = system: HCT-15
[6] = system: UACC-257
[7] = system: RPMI-8226
[8] = system: OVCAR-8
[9] = system: IGROV-1
[10] = system: EKVX
[11] = system: A498
[12] = system: SF-295
[13] = system: ACHN
[14] = system: TK-10
[15] = system: OVCAR-3
[16] = system: SK-MEL-2
[17] = system: NCI-H460
[18] = system: CAKI-1

Row | SMILES | GI50 [1] | GI50 [2] | GI50 [3] | GI50 [4] | GI50 [5] [µM] | GI50 [6] | GI50 [7] | GI50 [8] | GI50 [9] | GI50 [10] | GI50 [11] | GI50 [12] | GI50 [13] | GI50 [14] | GI50 [15] | GI50 [16] | GI50 [17] | GI50 [18]
1 | COc1ccc(-c2cc(=O)c3c(O)c(OC)c(O)c(OC)c3o2)cc1OC | 31.2 µM (inactive) | 25.1 µM (inactive) | > 100 µM (inactive) | 57 µM (inactive) | 63.7 | > 100 µM (inactive) | 46 µM (inactive) | > 100 µM (inactive) | 84.3 µM (inactive) | > 100 µM (inactive) | 36.4 µM (inactive) | > 100 µM (inactive) | 33 µM (inactive) | – | – | – | – | –
2 | CCc1cc2c(Nc3ccccc3)c3c(nc2s1)CCCC3 | 5.3 µM (inactive) | 16.7 µM (inactive) | 29.2 µM (inactive) | 9.35 µM (inactive) | 38.8 | > 100 µM (inactive) | 3.71 µM (inactive) | > 100 µM (inactive) | > 100 µM (inactive) | > 100 µM (inactive) | 25.8 µM (inactive) | 28.8 µM (inactive) | 94.2 µM (inactive) | > 100 µM (inactive) | 6.56 µM (inactive) | > 100 µM (inactive) | > 100 µM (inactive) | –
3 | O=[N+]([O-])/C=C/c1ccc(Cl)cc1Cl | 11.4 µM (inactive) | 15.3 µM (inactive) | 15.6 µM (inactive) | 3.44 µM (inactive) | 15 | 13.4 µM (inactive) | 2.44 µM (inactive) | 25.4 µM (inactive) | 14.8 µM (inactive) | – | – | 17 µM (inactive) | 16.8 µM (inactive) | > 10 µM (inactive) | 19.9 µM (inactive) | 20.3 µM (inactive) | 17.9 µM (inactive) | 16.3 µM (inactive)
4 | C=CCn1cc(C(=O)NC(=O)NCCCCCOC(=O)CCCCCCCCCCC(=O)OCCCCCNC(=O)NC(=O)c2cn(CC=C)c(=O)n(C)c2=O)c(=O)n(C)c1=O | – | > 100 µM (inactive) | > 100 µM (inactive) | > 100 µM (inactive) | > 100 | > 100 µM (inactive) | > 100 µM (inactive) | > 100 µM (inactive) | > 100 µM (inactive) | > 100 µM (inactive) | > 100 µM (inactive) | – | > 100 µM (inactive) | > 100 µM (inactive) | > 100 µM (inactive) | > 100 µM (inactive) | > 100 µM (inactive) | > 100 µM (inactive)
5 | COc1ccc(C2N3CCCCC3[C@@H]3c4[nH]c5ccccc5c4CCN23)c(OC)c1 (stereo not given in full) | – | 49.9 µM (inactive) | 33.7 µM (inactive) | 21.1 µM (inactive) | 28 | 26.2 µM (inactive) | 15.8 µM (inactive) | 33.3 µM (inactive) | 45.1 µM (inactive) | > 100 µM (inactive) | 15.5 µM (inactive) | 42.3 µM (inactive) | 23.6 µM (inactive) | 25.2 µM (inactive) | 24.6 µM (inactive) | 14.6 µM (inactive) | 22 µM (inactive) | 52 µM (inactive)
6 | CCC12CCCN(Cc3ccccc3)C1c1c(n(C)c3ccccc13)C(C(=O)OC)C2 (stereo not given) | 72.6 µM (inactive) | 79.8 µM (inactive) | 206 µM (inactive) | 51.6 µM (inactive) | 70.3 | 66.4 µM (inactive) | 82.4 µM (inactive) | 169 µM (inactive) | 146 µM (inactive) | > 239 µM (inactive) | – | 75.7 µM (inactive) | 182 µM (inactive) | > 239 µM (inactive) | 53.7 µM (inactive) | > 239 µM (inactive) | 117 µM (inactive) | 205 µM (inactive)
7 | CCOC(=O)Cc1nc2ccc3c(c2nc1O)C(=O)c1ccccc1C3=O | – | 60.4 µM (inactive) | 65.6 µM (inactive) | 31.5 µM (inactive) | 25.2 | 65.8 µM (inactive) | 13.6 µM (inactive) | 31.6 µM (inactive) | 16.9 µM (inactive) | 3.61 µM (inactive) | 28.4 µM (inactive) | – | 20.6 µM (inactive) | 31.7 µM (inactive) | 58.3 µM (inactive) | 76.4 µM (inactive) | 35.4 µM (inactive) | 14.6 µM (inactive)
8 | Cc1ccc(C)c(NC(=O)CC2SC(Nc3ccccc3Cl)=NC2=O)c1 (stereo not given) | 8.61 µM (inactive) | 27.7 µM (inactive) | > 100 µM (inactive) | > 100 µM (inactive) | > 100 | 55.3 µM (inactive) | – | > 100 µM (inactive) | > 100 µM (inactive) | > 100 µM (inactive) | > 100 µM (inactive) | 72.6 µM (inactive) | 71.1 µM (inactive) | > 100 µM (inactive) | > 100 µM (inactive) | > 100 µM (inactive) | > 100 µM (inactive) | 65.8 µM (inactive)
9 | CCCCCCCCCCCCCCCCCc1nnc(N)o1 | > 100 µM (inactive) | > 100 µM (inactive) | > 100 µM (inactive) | > 100 µM (inactive) | > 100 | > 100 µM (inactive) | > 100 µM (inactive) | > 100 µM (inactive) | > 100 µM (inactive) | – | – | > 100 µM (inactive) | > 100 µM (inactive) | > 100 µM (inactive) | > 100 µM (inactive) | > 100 µM (inactive) | > 100 µM (inactive) | > 100 µM (inactive)
10 | Nc1cc2c3c(cccc3c1)C(=O)N(CCN1CCN(CCN3C(=O)c4cccc5cc(N)cc(c45)C3=O)CC1)C2=O | – | > 100 µM (inactive) | > 100 µM (inactive) | 67.6 µM (inactive) | > 100 | > 100 µM (inactive) | > 100 µM (inactive) | 74.3 µM (inactive) | > 100 µM (inactive) | > 100 µM (inactive) | > 100 µM (inactive) | 97.1 µM (inactive) | > 100 µM (inactive) | > 100 µM (inactive) | > 100 µM (inactive) | > 100 µM (inactive) | 33.3 µM (inactive) | > 100 µM (inactive)
11 | C1=CC2CCC1CN2CCC1CNc2ccccc21 (stereo not given) | > 100 µM (inactive) | > 100 µM (inactive) | > 100 µM (inactive) | > 100 µM (inactive) | – | > 100 µM (inactive) | > 100 µM (inactive) | > 100 µM (inactive) | > 100 µM (inactive) | > 100 µM (inactive) | > 100 µM (inactive) | > 100 µM (inactive) | > 100 µM (inactive) | > 100 µM (inactive) | > 100 µM (inactive) | > 100 µM (inactive) | – | –
12 | COC(=O)C12CC3CC(C1)CC(C(=O)OC)(C3)C2 | > 100 µM (inactive) | > 100 µM (inactive) | > 100 µM (inactive) | > 100 µM (inactive) | > 100 | > 100 µM (inactive) | > 100 µM (inactive) | > 100 µM (inactive) | > 100 µM (inactive) | > 100 µM (inactive) | > 100 µM (inactive) | > 100 µM (inactive) | > 100 µM (inactive) | > 100 µM (inactive) | > 100 µM (inactive) | – | > 100 µM (inactive) | > 100 µM (inactive)
13 | CC1(C)CC(=O)C(CC2C(=O)CCCC2=O)C(=O)C1 | > 100 µM (inactive) | – | > 100 µM (inactive) | > 100 µM (inactive) | > 100 | > 100 µM (inactive) | – | > 100 µM (inactive) | > 100 µM (inactive) | > 100 µM (inactive) | > 100 µM (inactive) | > 100 µM (inactive) | > 100 µM (inactive) | > 100 µM (inactive) | > 100 µM (inactive) | > 100 µM (inactive) | > 100 µM (inactive) | > 100 µM (inactive)
